In patent US8802674B2, “Aminopyrimidine derivatives as LRRK2 modulators” (Genentech, Inc., priority 2011, dated 2014):
pKi: −log10 of the molar value.

target: LRRK2 (Homo sapiens (Human), UniProt Q5S007, G2019S); assay: In Vitro LRRK2 LabChip Assay; type: biochemical; details: Table 4
Procedure: In Vitro LRRK2 LabChip Assay
This assay was used to determine a compound's potency in inhibiting activity of LRRK2 by determining, Kiapp, IC50, or percent inhibition values. In a polypropylene plate, LRRK2, fluorescently-labeled peptide substrate, ATP and test compound were incubated together. Using a LabChip 3000 (Caliper Life Sciences), after the reaction the substrate was separated by capillary electrophoresis into two populations: phosphorylated and unphosphorylated. The relative amounts of each were quantitated by fluorescence intensity. LRRK2 Ki was determined according to the equation: Y=V0*(1−((x+Ki*(1+S/Km)+Et)/(2*Et)−(((x+Ki*(1+S/Km)+Et)^2−(4*Et*x))^0.5)/(2*Et))). Ki values in Table 4 and elsewhere herein are shown in μM.
Assay conditions and materials used were as follows:
Compound Plate Preparation:
For serial dilutions, 34.6 μl DMSO was added to columns 3-24. For the assay controls, 37.5 μl DMSO was added to columns 1 and 2 of rows A and P. a,d and 50 μl 25 μM G-028831 (Staurosporine) was added to columns 1 and 2, row B. For the samples: to start at 100 μM, 37.5 μl DMSO was to columns 1 and 2, then 12.5 μl 10 mM compound; to start at 10 μM, 78 μl DMSO was added to columns 1 & 2, then 2 μl 10 mM compound; and to start at 1 μM, 25 μM compound (2 μl 10 mM cmpd+798 μl DMSO) was added to empty columns 1 and 2. A Precision instrument was used to perform 1:3.16 serial dilutions (“PLK_BM_serial_halflog”).
ATP was diluted to 282.1 μM in Complete Kinase Buffer (final concentration was 130 μM).
Total and Blank Preparation:
In Complete Reaction Buffer, substrate was diluted to 4 μM. Equal volumes of Complete Reaction Buffer and 4 μM substrate were combined to obtain the blank. Equal volumes of Complete Reaction Buffer and 4 μM substrate were combined and to the combined solution was added 2× final LRRK2 concentration.
To a 50 μl polypropylene plate, 5 μl/well buffer/substrate was added by hand to Blank wells. A Biomek FX was used to start the kinase reaction (“PLK SAR 23 ATP”). The following were added to the appropriate wells:
5 μl/well compound/ATP in Assay Plate;
5 μl/well kinase/substrate in Assay Plate;
The plate was incubated for 2 hours in the dark. Biomek FX was used to stop the kinase reaction (“PLK Stop”), and 10 μl/well Stop solution was added to the Assay Plate. Results were read on the LabChip 3000.
The LabChip 3000 was run using the job “LRRK2IC50” with the following job settings: […]

Sequence of LRRK2 (Q5S007 970-2527 G2019S limits assumed): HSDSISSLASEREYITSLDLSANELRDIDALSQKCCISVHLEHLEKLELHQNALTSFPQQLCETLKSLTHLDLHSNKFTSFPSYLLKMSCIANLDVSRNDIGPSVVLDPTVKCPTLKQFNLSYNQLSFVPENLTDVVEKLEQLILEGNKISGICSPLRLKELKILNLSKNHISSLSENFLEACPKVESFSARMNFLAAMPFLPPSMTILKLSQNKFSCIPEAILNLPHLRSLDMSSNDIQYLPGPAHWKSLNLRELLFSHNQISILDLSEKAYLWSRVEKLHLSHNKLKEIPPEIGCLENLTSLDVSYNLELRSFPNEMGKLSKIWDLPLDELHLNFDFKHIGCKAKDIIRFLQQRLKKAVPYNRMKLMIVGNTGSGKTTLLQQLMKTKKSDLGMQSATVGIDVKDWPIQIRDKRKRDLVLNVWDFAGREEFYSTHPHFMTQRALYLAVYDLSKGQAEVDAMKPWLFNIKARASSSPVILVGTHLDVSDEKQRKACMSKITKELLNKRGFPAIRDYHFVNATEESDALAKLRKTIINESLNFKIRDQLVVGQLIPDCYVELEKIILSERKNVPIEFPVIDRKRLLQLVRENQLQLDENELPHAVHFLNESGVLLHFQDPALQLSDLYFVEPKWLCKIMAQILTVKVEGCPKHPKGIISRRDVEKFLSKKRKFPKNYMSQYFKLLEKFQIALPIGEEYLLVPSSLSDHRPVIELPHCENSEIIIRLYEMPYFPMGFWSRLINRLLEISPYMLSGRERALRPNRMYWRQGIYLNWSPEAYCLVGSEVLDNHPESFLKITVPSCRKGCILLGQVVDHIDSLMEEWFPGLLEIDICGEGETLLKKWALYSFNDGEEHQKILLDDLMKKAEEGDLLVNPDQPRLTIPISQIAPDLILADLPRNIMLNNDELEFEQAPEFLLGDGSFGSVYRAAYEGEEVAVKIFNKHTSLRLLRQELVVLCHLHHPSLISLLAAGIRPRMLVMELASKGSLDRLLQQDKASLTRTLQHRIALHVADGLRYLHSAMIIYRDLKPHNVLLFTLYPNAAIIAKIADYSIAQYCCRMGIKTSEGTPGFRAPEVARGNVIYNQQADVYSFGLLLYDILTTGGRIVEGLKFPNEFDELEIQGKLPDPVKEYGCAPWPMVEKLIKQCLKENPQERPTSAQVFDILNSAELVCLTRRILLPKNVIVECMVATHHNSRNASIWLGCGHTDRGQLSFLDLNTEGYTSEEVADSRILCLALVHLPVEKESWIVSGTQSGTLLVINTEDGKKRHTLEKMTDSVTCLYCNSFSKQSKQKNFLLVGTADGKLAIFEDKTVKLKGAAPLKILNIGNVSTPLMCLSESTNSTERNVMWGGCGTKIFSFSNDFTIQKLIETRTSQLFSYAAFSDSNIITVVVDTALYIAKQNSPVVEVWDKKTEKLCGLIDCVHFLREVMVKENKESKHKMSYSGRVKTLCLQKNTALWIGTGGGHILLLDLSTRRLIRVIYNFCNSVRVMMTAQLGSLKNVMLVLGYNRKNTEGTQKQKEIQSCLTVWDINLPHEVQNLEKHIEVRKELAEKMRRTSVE

| Structure (SMILES) | pKi |
| --- | --- |
| CNc1nc(Nc2ccc(C(=O)N3CCOCC3)cc2Cl)ncc1Cl [Example 115, [3-Chloro-4-(5-chloro-4-methylamino-pyrimidin-2-ylamino)-phenyl]-morpholin-4-yl-methanone] | 8.22 |
| CNc1nc(Nc2cc(OC)c(CC(=O)N3CCOCC3)cc2OC)ncc1Br [Example 220, 2-[4-(5-Bromo-4-methylamino-pyrimidin-2-ylamino)-2,5-dimethoxy-phenyl] 1-morpholin-4-yl-ethanone] | 8.47 |
| CNc1nc(Nc2ccc(C(=O)N3CCOCC3)cc2OC)ncc1C1CC1 [Example 66, [4-(5-Cyclopropyl-4-methylamino-pyrimidin-2-ylamino)-3-methoxy-phenyl]-morpholin-4-yl-methanone] | 7.44 |
| COc1cc(C(=O)N2CCOCC2)ccc1Nc1ncc(C2CC2)c(OC)n1 [Example 182, (4-(5-cyclopropyl-4-methoxypyrimidin-2-ylamino)-3-methoxyphenyl) (morpholino) methanone] | 7.05 |
| CNc1nc(Nc2cc(OC)c(C(=O)NCCO)cc2Cl)ncc1Cl [Example 142, 5-Chloro-4-(5-chloro-4-methylamino-pyrimidin-2-ylamino)-N-(2-hydroxy-ethyl)-2-methoxy-benzamide] | 7.96 |
| CNc1nc(Nc2ccc(C(=O)N3CCN(C(=O)C4CC4)CC3)cc2OC)ncc1Cl [Example 70, [4-(5-Chloro-4-methylamino-pyrimidin-2-ylamino)-3-methoxy-phenyl]-(4-cyclopropanecarbonyl-piperazin-1-yl)-methanone] | 8.66 |
| CCNc1nc(Nc2cc(F)c(C(=O)N(C)C)cc2OC)ncc1C#N [Example 240, 4-(5-Cyano-4-ethylamino-pyrimidin-2-ylamino)-2-fluoro-5-methoxy-N,N-dimethyl-benzamide] | 8.01 |
| COc1nc(Nc2ccc(C(=O)N3CCOCC3)cc2OC2CCC2)ncc1Br [Example 85, [4-(5-Bromo-4-methoxy-pyrimidin-2-ylamino)-3-cyclobutoxy-phenyl]-morpholin-4-yl-methanone] | 8.55 |
| CNc1nc(Nc2ccc(C(=O)N3CCOCC3)cc2OC)ncc1C(F)(F)F [Example 50, [3-Methoxy-4-(4-methylamino-5-trifluoromethyl-pyrimidin-2-ylamino)-phenyl]-morpholin-4-yl-methanone] | 8.57 |
| CNC(=O)c1cc(OC)c(Nc2ncc(C(F)(F)F)c(NC)n2)cc1F [Example 180, 2-Fluoro-5-methoxy-N-methyl-4-(4-methylamino-5-trifluoromethyl-pyrimidin-2-ylamino)-benzamide] | 8.33 |
| CCNc1nc(Nc2cc(OC)c(C(=O)N3CCOCC3)cc2F)ncc1C(F)(F)F [Example 238, (4-(4-(ethylamino)-5-(trifluoromethyl)pyrimidin-2-ylamino)-5-fluoro-2-methoxyphenyl) (morpholino) methanone] | 8.85 |
| COc1cc(C(=O)N2CCOCC2)ccc1Nc1ncc(I)c(OC)n1 [Example 101, [4-(5-Iodo-4-methoxy-pyrimidin-2-ylamino)-3-methoxy-phenyl]-morpholin-4-yl-methanone] | 8.68 |
| CNc1nc(Nc2ccc(C(=O)N3CC4CC3CO4)cc2OC)ncc1Cl (stereo not shown) [Example 62, [4-(5-Chloro-4-methylamino-pyrimidin-2-ylamino)-3-methoxy-phenyl]-(2-oxa-5-aza-bicyclo[2.2.1]hept-5-yl)-methanone] | 8.35 |
| CCNc1nc(Nc2ccc(C(=O)N3CCOCC3)c(F)c2OC)ncc1C(F)(F)F [Example 241, (4-(4-(ethylamino)-5-(trifluoromethyl)pyrimidin-2-ylamino)-2-fluoro-3-methoxyphenyl) (morpholino)methanone] | 8.74 |
| CNc1nc(Nc2ccc(C(=O)N3CCC(C(C)(C)O)CC3)cc2OC)ncc1Br [Example 71, [4-(5-Bromo-4-methylamino-pyrimidin-2-ylamino)-3-methoxy-phenyl]-[4-(l-hydroxy-1-methyl-ethyl)-piperidin-1-yl]-methanone] | 8.62 |
| CNc1nc(Nc2cc(F)c(C(=O)N3CCOCC3)cc2OC)ncc1C(F)(F)F [Example 239, [2-Fluoro-5-methoxy-4-(4-methylamino-5-trifluoromethyl-pyrimidin-2-ylamino)-phenyl]-moipholin-4-yl-methanone] | 8.54 |
| CNc1nc(Nc2cc(OC)c(C(=O)N3CCOC(CO)C3)cc2Cl)ncc1Cl (stereo not shown) [Example 162, [5-Chloro-4-(5-chloro-4-methylamino-pyrimidin-2-ylamino)-2-methoxy-phenyl]-(2-hydroxymethyl-morpholin-4-yl)-methanone] | 8.16 |
| CNc1nc(Nc2cc(OC)c(C(=O)N3CCC(C#N)C3)cc2Cl)ncc1Cl (stereo not drawn) [Example 171, l-[5-Chloro-4-(5-chloro-4-methylamino-pyrimidin-2-ylamino)-2-methoxy-benzoyl]-pyrrolidine-3-carbonitrile] | 8.35 |
| CCNc1nc(Nc2cc(F)c(C(=O)N3CCOCC3)cc2OC)ncc1Cl [Example 87, [4-(5-Chloro-4-ethylamino-pyrimidin-2-ylamino)-2-fluoro-5-methoxy-phenyl]-morpholin-4-yl-methanone] | 8.60 |
| CNc1nc(Nc2cc(OC)c(C(=O)N3CCCOCC3)cc2Cl)ncc1Cl [Example 165, [5-Chloro-4-(5-chloro-4-methylamino-pyrimidin-2-ylamino)-2-methoxy-phenyl]-[1,4]oxazepan-4-yl-methanone] | 8.24 |
| COCCOc1nc(Nc2ccc(C(=O)N3CCOCC3)cc2OC2CCC2)ncc1Cl [Example 187, {4-[5-Chloro-4-(2-methoxy-ethoxy)-pyrimidin-2-ylamino]-3-cyclobutoxy-phenyl}-morpholin-4-yl-methanone] | 7.84 |
| CNc1nc(Nc2ccc(C(=O)N3CCOCC3)cc2OC)ncc1C(C)=O [Example 183, l-{2-[2-Methoxy-4-(morpholine-4-carbonyl)-phenylamino]-4-methylamino-pyrimidin-5-yl}-ethanone] | 7.17 |
| COc1cc(C(=O)N2CCOCC2)ccc1Nc1ncc(Cl)c(NC2(C)CCC2)n1 [Example 91, {4-[5-Chloro-4-(1-methyl-cyclobutylamino)-pyrimidin-2-ylamino]-3-methoxy-phenyl}-morpholin-4-yl-methanone] | 8.62 |

same assay, conditions: Table 6

| Structure (SMILES) | pKi |
| --- | --- |
| CCNc1nc(Nc2ccc(C(=O)N3CCOCC3)cc2OC(C)C)ncc1C(F)(F)F [Example 310, (4-(4-(ethylamino)-5-(trifluoromethyl)pyrimidin-2-yl-amino)-3-isopropoxyphenyl) (morpholino) methanone] | 8.35 |
| CCNc1nc(Nc2cc(F)c(C(=O)N3CCC[C@H]3COC)cc2OC)ncc1C(F)(F)F [Example 306, [4-(4-Ethylamino-5-trifluoromethyl-pyrimidin-2-ylamino)-2-fluoro-5-methoxy-phenyl]-((S)-2-methoxymethyl-pyrrolidin-1-yl)-methanone] | 9.22 |
| CCOc1cc(C(=O)N2CCOCC2)c(F)cc1Nc1ncc(C(F)(F)F)c(NC)n1 [Example 300, [5-Ethoxy-2-fluoro-4-(4-methylamino-5-trifluoromethyl-pyrimidin-2-ylamino)-phenyl]-morpholin-4-yl-methanone] | 8.05 |
| CNc1nc(Nc2ccc(C(=O)N3CCOCC3)cc2OCC2CC2)ncc1C(F)(F)F [Example 285, [3-Cyclopropyl-methoxy-4-(4-methylamino-5-trifluoromethyl-pyrimidin-2-ylamino)-phenyl]-morpholin-4-yl-methanone] | 8.19 |
| CNc1nc(Nc2ccc(C(=O)N3CCCC3)cc2OC)ncc1C(F)(F)F [Example 274, [3-Methoxy-4-(4-methylamino-5-trifluoromethyl-pyrimidin-2-ylamino)-phenyl]-pyrrolidin-1-yl-methanone] | 8.39 |
| CNc1nc(Nc2cc(OC)c(C(=O)N3CCOCC3)cc2Cl)ncc1C(F)(F)F [Example 296, [5-Chloro-2-methoxy-4-(4-methylamino-5-trifluoromethyl-pyrimidin-2-ylamino)-phenyl]-morpholin-4-yl-methanone] | 8.70 |
| CCNc1nc(Nc2cc(F)c(C(=O)N(C)CCOC)cc2OC)ncc1C(F)(F)F [Example 304, 4-(4-Ethylamino-5-trifluoromethyl-pyrimidin-2-ylamino)-2-fluoro-5-methoxy-N-(2-methoxy-ethyl)-N-methyl-benzamide] | 8.80 |

same assay, conditions: Table 7

| Structure (SMILES) | pKi |
| --- | --- |
| CCNc1nc(Nc2cc(F)c(C(=O)N3C[C@@H](C)O[C@@H](C)C3)cc2OC)ncc1C#N [Example 319, 2-[4-((2R,6S)-2,6-Dimethyl-morpholine-4-carbonyl)-5-fluoro-2-methoxy-phenylamino]-4-ethylamino-pyrimidine-5-carbonitrile] | 7.71 |
